Assay results reported in patent US20090192185A1, “MEDICAL PRODUCT” (Boehringer Ingelheim International GmbH, priority 2003, published 2009).

Key:
[1] = bronchodilator; cited from earlier work
[2] = Stability tests of FPD at 40° C. and 75% Rh (tests S1-S5, HBS1-HBS3), out of […]; assay type: physicochemical; conditions: conclusion of the tests

Structure (SMILES)	Duration of action [1]	Sensitivity to moisture [2]
C[N+]1(C)[C@@H]2C[C@@H](OC(=O)C(O)(c3cccs3)c3cccs3)C[C@H]1[C@@H]1O[C@@H]12 [tiotropium bromide]	up to 24 hours	
C[N+]1(C)[C@@H]2C[C@@H](OC(=O)C(O)(c3cccs3)c3cccs3)C[C@H]1[C@@H]1O[C@@H]12 [tiotropium]		extremely sensitive to moisture
